Test results published in patent US9211310B2, “Use of a Chinese medicine composition in preparing medicaments for treating secondary prevention of myocardial infarction” (TASLY PHARMACEUTICAL GROUP CO., LTD, priority 2010, dated 2015).

System: patients after acute myocardial infarction
Experiment: TCM symptom score, total and single (chest pain, chest tightness, short breath, fatigue, palpitation, spontaneous perspiration, pale complexion), same clinical trial
Type: in vivo, human
Design: total score of TCM symptom, Mean / total score of TCM symptom, Min / total score of TCM symptom, Max / total score of TCM symptom, Md / change of total score of TCM symptom, Mean / change of total score of TCM symptom, Max / change of total score of TCM symptom, Md: scale not given here
Description: 3508 patients who were in accordance with the diagnostic standards of AMI for 28 days to 2 years and differentiated as Qi deficiency and blood stagnation syndrome by TCM were studied. 0.5 g Chinese medicine composition prepared by the method of EXAMPLE 1 (Coded as QSYQ) was administrated half an hour after meal, 3 times per day.
They included the overall survival time, angina pectoris score, TCM symptom score and life quality score, where angina pectoris score, TCM symptom score and life quality score were evaluated at randomization, in 1st, 3rd, 6th, 9th, 12th month after treatment and 18th month after follow-up.
The analysis method referred to the angina pectoris score.

CC(=O)Oc1ccccc1C(=O)O [Control group, aspirine]
change of pale complexion −1, number of patients (FAS, Follow-up-baseline): 39
change of pale complexion −1, percent of patients (FAS, Follow-up-baseline): (2.75%)
change of palpitation 0, number of patients (FAS, Follow-up-baseline): 690
change of palpitation 0, percent of patients (FAS, Follow-up-baseline): (48.46%)
change of palpitation 1, number of patients (FAS, Follow-up-baseline): 528
change of palpitation 1, percent of patients (FAS, Follow-up-baseline): (37.08%)
change of palpitation 2, number of patients (FAS, Follow-up-baseline): 97
change of palpitation 2, percent of patients (FAS, Follow-up-baseline): (6.81%)
change of palpitation 3, number of patients (FAS, Follow-up-baseline): 15
change of palpitation 3, percent of patients (FAS, Follow-up-baseline): (1.05%)
change of palpitation −1, number of patients (FAS, Follow-up-baseline): 90
change of palpitation −1, percent of patients (FAS, Follow-up-baseline): (6.32%)
change of palpitation −2, number of patients (FAS, Follow-up-baseline): 3
change of palpitation −2, percent of patients (FAS, Follow-up-baseline): (0.21%)
change of palpitation −3, number of patients (FAS, Follow-up-baseline): 1
change of palpitation −3, percent of patients (FAS, Follow-up-baseline): (0.07%)
change of short breath 0, % of patients (FAS, Follow-up-baseline): (52.21%)
change of short breath 0, number of patients (FAS, Follow-up-baseline): 744
change of short breath 2, % of patients (FAS, Follow-up-baseline): (36.42%)
change of short breath 2, number of patients (FAS, Follow-up-baseline): 519
change of short breath 4, % of patients (FAS, Follow-up-baseline): (5.47%)
change of short breath 4, number of patients (FAS, Follow-up-baseline): 78
change of short breath 6, % of patients (FAS, Follow-up-baseline): (0.77%)
change of short breath 6, number of patients (FAS, Follow-up-baseline): 11
change of short breath −2, % of patients (FAS, Follow-up-baseline): (4.98%)
change of short breath −2, number of patients (FAS, Follow-up-baseline): 71
change of short breath −4, % of patients (FAS, Follow-up-baseline): (0.00%)
change of short breath −4, number of patients (FAS, Follow-up-baseline): 0
change of short breath −6, % of patients (FAS, Follow-up-baseline): (0.14%)
change of short breath −6, number of patients (FAS, Follow-up-baseline): 2
change of spontaneous perspiration 0, number of patients (FAS, Follow-up-baseline): 656
change of spontaneous perspiration 0, percent of patients (FAS, Follow-up-baseline): (46.07%)
change of spontaneous perspiration 1, number of patients (FAS, Follow-up-baseline): 466
change of spontaneous perspiration 1, percent of patients (FAS, Follow-up-baseline): (32.72%)
change of spontaneous perspiration 2, number of patients (FAS, Follow-up-baseline): 141
change of spontaneous perspiration 2, percent of patients (FAS, Follow-up-baseline): (9.90%)
change of spontaneous perspiration 3, number of patients (FAS, Follow-up-baseline): 32
change of spontaneous perspiration 3, percent of patients (FAS, Follow-up-baseline): (2.25%)
change of spontaneous perspiration −1, percent of patients (FAS, Follow-up-baseline): (8.36%)
change of spontaneous perspiration −2, number of patients (FAS, Follow-up-baseline): 8
change of spontaneous perspiration −2, percent of patients (FAS, Follow-up-baseline): (0.56%)
change of spontaneous perspiration −3, number of patients (FAS, Follow-up-baseline): 2
change of spontaneous perspiration −3, percent of patients (FAS, Follow-up-baseline): (0.14%)
change of total score of TCM symptom, Max (FAS, Follow-up-baseline): 27.00
change of total score of TCM symptom, Md (FAS, Follow-up-baseline): −5.00
change of total score of TCM symptom, Mean (FAS, Follow-up-baseline): −6.18
change of total score of TCM symptom, Min (FAS, Follow-up-baseline): −29.00
change of chest pain score 0, number of patients (Follow-up-baseline, FAS): 769
change of chest pain score 0, percent of patients (Follow-up-baseline, FAS): (54.08%)
change of chest pain score 3, number of patients (Follow-up-baseline, FAS): 426
change of chest pain score 3, percent of patients (Follow-up-baseline, FAS): (29.96%)
change of chest pain score 6, number of patients (Follow-up-baseline, FAS): 158
change of chest pain score 6, percent of patients (Follow-up-baseline, FAS): (11.11%)
change of chest pain score 9, number of patients (Follow-up-baseline, FAS): 9
change of chest pain score 9, percent of patients (Follow-up-baseline, FAS): (0.63%)
change of chest pain score −2, number of patients (Follow-up-baseline, FAS): 1
change of chest pain score −2, percent of patients (Follow-up-baseline, FAS): (0.07%)
change of chest pain score −3, number of patients (Follow-up-baseline, FAS): 47
change of chest pain score −3, percent of patients (Follow-up-baseline, FAS): (3.31%)
change of chest pain score −6, number of patients (Follow-up-baseline, FAS): 11
change of chest pain score −6, percent of patients (Follow-up-baseline, FAS): (0.77%)
change of chest pain score −9, number of patients (Follow-up-baseline, FAS): 1
change of chest pain score −9, percent of patients (Follow-up-baseline, FAS): (0.07%)
change of chest tightness score 0, number of patients (Follow-up-baseline, FAS): 728
change of chest tightness score 0, percent of patients (Follow-up-baseline, FAS): (51.09%)
change of chest tightness score 1, number of patients (Follow-up-baseline, FAS): 1
change of chest tightness score 1, percent of patients (Follow-up-baseline, FAS): (0.07%)
change of chest tightness score 3, number of patients (Follow-up-baseline, FAS): 544
change of chest tightness score 3, percent of patients (Follow-up-baseline, FAS): (38.18%)
change of chest tightness score 6, number of patients (Follow-up-baseline, FAS): 87
change of chest tightness score 6, percent of patients (Follow-up-baseline, FAS): (6.11%)
change of chest tightness score 9, number of patients (Follow-up-baseline, FAS): 5
change of chest tightness score 9, percent of patients (Follow-up-baseline, FAS): (0.35%)
change of chest tightness score −3, number of patients (Follow-up-baseline, FAS): 55
change of chest tightness score −3, percent of patients (Follow-up-baseline, FAS): (3.86%)
change of chest tightness score −6, number of patients (Follow-up-baseline, FAS): 4
change of chest tightness score −6, percent of patients (Follow-up-baseline, FAS): (0.28%)
change of chest tightness score −9, number of patients (Follow-up-baseline, FAS): 1
change of chest tightness score −9, percent of patients (Follow-up-baseline, FAS): (0.07%)
change of chest pain score 0, number of patients (Follow-up-baseline, PP): 750
change of chest pain score 0, percent of patients (Follow-up-baseline, PP): (54.03%)
change of chest pain score 3, number of patients (Follow-up-baseline, PP): 417
change of chest pain score 3, percent of patients (Follow-up-baseline, PP): (30.04%)
change of chest pain score 6, number of patients (Follow-up-baseline, PP): 155
change of chest pain score 6, percent of patients (Follow-up-baseline, PP): (11.17%)
change of chest pain score 9, number of patients (Follow-up-baseline, PP): 8
change of chest pain score 9, percent of patients (Follow-up-baseline, PP): (0.58%)
change of chest pain score −2, number of patients (Follow-up-baseline, PP): 1
change of chest pain score −2, percent of patients (Follow-up-baseline, PP): (0.07%)
change of chest pain score −3, number of patients (Follow-up-baseline, PP): 47
change of chest pain score −3, percent of patients (Follow-up-baseline, PP): (3.39%)
change of chest pain score −6, number of patients (Follow-up-baseline, PP): 9
change of chest pain score −6, percent of patients (Follow-up-baseline, PP): (0.65%)
change of chest pain score −9, number of patients (Follow-up-baseline, PP): 1
change of chest pain score −9, percent of patients (Follow-up-baseline, PP): (0.07%)
change of chest tightness score 0, number of patients (Follow-up-baseline, PP): 712
change of chest tightness score 0, percent of patients (Follow-up-baseline, PP): (51.19%)
change of chest tightness score 1, number of patients (Follow-up-baseline, PP): 1
change of chest tightness score 1, percent of patients (Follow-up-baseline, PP): (0.07%)
change of chest tightness score 3, number of patients (Follow-up-baseline, PP): 528
change of chest tightness score 3, percent of patients (Follow-up-baseline, PP): (37.96%)
change of chest tightness score 6, number of patients (Follow-up-baseline, PP): 86
change of chest tightness score 6, percent of patients (Follow-up-baseline, PP): (6.18%)
change of chest tightness score 9, number of patients (Follow-up-baseline, PP): 5
change of chest tightness score 9, percent of patients (Follow-up-baseline, PP): (0.36%)
change of chest tightness score −3, number of patients (Follow-up-baseline, PP): 54
change of chest tightness score −3, percent of patients (Follow-up-baseline, PP): (3.88%)
change of chest tightness score −6, number of patients (Follow-up-baseline, PP): 4
change of chest tightness score −6, percent of patients (Follow-up-baseline, PP): (0.29%)
change of chest tightness score −9, number of patients (Follow-up-baseline, PP): 1
change of chest tightness score −9, percent of patients (Follow-up-baseline, PP): (0.07%)
chest pain score 0, number of patients (Follow-up, FAS): 754
chest pain score 0, percent of patients (Follow-up, FAS): (52.84%)
chest pain score 2, number of patients (Follow-up, FAS): 1
chest pain score 2, percent of patients (Follow-up, FAS): (0.07%)
chest pain score 3, number of patients (Follow-up, FAS): 479
chest pain score 3, percent of patients (Follow-up, FAS): (33.57%)
chest pain score 6, number of patients (Follow-up, FAS): 192
chest pain score 6, percent of patients (Follow-up, FAS): (13.45%)
chest pain score 9, number of patients (Follow-up, FAS): 1
chest pain score 9, percent of patients (Follow-up, FAS): (0.07%)
chest tightness score 0, number of patients (Follow-up, FAS): 754
chest tightness score 0, percent of patients (Follow-up, FAS): (52.84%)
chest tightness score 2, number of patients (Follow-up, FAS): 1
